{"source": "patent US10363262B1", "about": "“Composition for treating wound comprising gypenoside LXXV” (Intelligent Synthetic Biology Center, priority 2018, dated 2019)", "molecules": {"B1": {"name": "CTGF: connective tissue growth factor, applied to human dermal fibroblasts (protein, UniProt P29279 27-349, looked up)", "CCN family member 2": "QNCSGPCRCPDEPAPRCPAGVSLVLDGCGCCRVCAKQLGELCTERDPCDPHKGLFCHFGSPANRKIGVCTAKDGAPCIFGGTVYRSGESFQSSCKYQCTCLDGAVGCMPLCSMDVRLPSPDCPFPRRVKLPGKCCEEWVCDEPKDQTVVGPALAAYRLEDTFGPDPTMIRANCLVQTTEWSACSKTCGMGISTRVTNDNASCRLEKQSRLCMVRPCEADLEENIKKGKKCIRTPKISKPIKFELSGCTSMKTYRAKFCGVCTDGRCCTPHRTTTLPVEFKCPDGEVMKKNMMFIKTCACHYNCPGDNDIFESLYYRKMYGDMA"}}, "key": {"[1]": {"system": "HaCaT keratinocytes", "assay": "non-radioactive cell proliferation assay, HaCaT keratinocytes", "assay_type": "cell-based", "protocol": "(§1) Each cell was seeded into a 96-well plate and cultured at 37° C. for 48 hours. The cultured cells were treated with G75, MA, or DMSO at a concentration of 5 μM or 10 μM. After 48 hours, the proliferation of these cells was confirmed using the non-radioactive cell proliferation assay kit (Promega, WI, USA), and migration of these cells was confirmed in the same manner as in Example 1-2 (FIG. 2)."}, "[2]": {"system": "human dermal fibroblasts", "assay": "non-radioactive cell proliferation assay, human dermal fibroblasts", "assay_type": "cell-based", "details": "10 μM, 48 hours", "protocol": "as §1"}, "[3]": {"system": "excision wound mouse model", "assay": "in vivo wound closure activity in excision wound mouse model", "details": "ICR mice, once a day for 9 days, topical", "protocol": "The in vivo wound closure activity was measured in an excision wound mouse model.\nEight-week-old male ICR mice were purchased from Narabiotech (Korea), acclimatized for one week, and used in the experiment. Two full-thickness circular wounds (diameter: 5 mm) were created on the dorsal region of each mouse, and the progressive changes in wound closure were measured relative to the original wound area. G75 (5 μM/wound) or MA (10 μM/wound) was then applied on each wound area once a day for 9 days. DMSO-propylene glycol was used as a vehicle control."}, "[4]": {"details": "compared with ginsenosides having a large size (about 1,000 Da); cited from earlier work"}, "[5]": {"system": "HaCaT keratinocytes", "assay": "MTT analysis of proliferation of HaCaT keratinocytes", "assay_type": "cell-based", "details": "48 hours", "protocol": "HaCaT keratinocytes were treated with major ginsenosides (e.g., Rb1, Rd, Re, and Rg1) and other ginsenosides (e.g., C-K, F1, F2, G17, G75, PPD, PPT, Rg2, Rg3, Rh1, and Rh2) at a concentration of 0.01 μM to 20 μM for 48 hours and then subjected to MTT analysis (FIG. 1A). As the control group, DMSO was used."}, "[6]": {"system": "dorsal excisional wound tissue", "assay": "RNA sequencing of dorsal excisional wound tissue", "assay_type": "in vivo, mouse", "details": "third day after treatment; p 0.05 or below and change of 1.7-fold or greater", "protocol": "(§2) To examine the process of G75 involvement in wound recovery, RNA sequencing was performed. After creating an excision wound on the dorsal area of each mouse, the wound was treated with G75 or the vehicle control, and RNA was isolated from the dorsal excisional wound tissue on the third day after the treatment and analyzed. When the p value was 0.05 or below and there was a change of 1.7-fold or greater, the change was considered to significant."}, "[7]": {"system": "Fgf10", "assay": "RNA sequencing, growth factor mRNA level in wound tissue", "assay_type": "in vivo, mouse", "details": "third day after treatment, versus vehicle control", "protocol": "as §2\n(§3) To confirm the effect of G75 on the growth factors involved in wound healing, the mRNA levels of growth factors were measured based on the results of RNA sequencing analysis."}, "[8]": {"system": "Fgf7", "assay": "RNA sequencing, growth factor mRNA level in wound tissue", "assay_type": "in vivo, mouse", "details": "third day after treatment, versus vehicle control", "protocol": "as §2, §3"}, "[9]": {"system": "Csf2", "assay": "RNA sequencing, growth factor mRNA level in wound tissue", "assay_type": "in vivo, mouse", "details": "third day after treatment, versus vehicle control", "protocol": "as §2, §3"}, "[10]": {"system": "Hgf", "assay": "RNA sequencing, growth factor mRNA level in wound tissue", "assay_type": "in vivo, mouse", "details": "third day after treatment, versus vehicle control", "protocol": "as §2, §3"}, "[11]": {"system": "Angpt1", "assay": "RNA sequencing, growth factor mRNA level in wound tissue", "assay_type": "in vivo, mouse", "details": "third day after treatment, versus vehicle control", "protocol": "as §2, §3"}, "[12]": {"system": "CTGF", "assay": "RNA sequencing, growth factor mRNA level in wound tissue", "assay_type": "in vivo, mouse", "details": "third day after treatment, versus vehicle control", "protocol": "as §2, §3"}, "[13]": {"system": "Tgf alpha", "assay": "RNA sequencing, growth factor mRNA level in wound tissue", "assay_type": "in vivo, mouse", "details": "third day after treatment, versus vehicle control", "protocol": "as §2, §3"}, "[14]": {"system": "Fgf2", "assay": "RNA sequencing, growth factor mRNA level in wound tissue", "assay_type": "in vivo, mouse", "details": "third day after treatment, versus vehicle control", "protocol": "as §2, §3"}, "[15]": {"system": "Hbegf", "assay": "RNA sequencing, growth factor mRNA level in wound tissue", "assay_type": "in vivo, mouse", "details": "third day after treatment, versus vehicle control", "protocol": "as §2, §3"}, "[16]": {"system": "Vegf alpha", "assay": "RNA sequencing, growth factor mRNA level in wound tissue", "assay_type": "in vivo, mouse", "details": "third day after treatment, versus vehicle control", "protocol": "as §2, §3"}, "[17]": {"system": "Igf1", "assay": "RNA sequencing, growth factor mRNA level in wound tissue", "assay_type": "in vivo, mouse", "details": "third day after treatment, versus vehicle control", "protocol": "as §2, §3"}, "[18]": {"system": "Tgf beta1", "assay": "RNA sequencing, growth factor mRNA level in wound tissue", "assay_type": "in vivo, mouse", "details": "third day after treatment, versus vehicle control", "protocol": "as §2, §3"}, "[19]": {"system": "HaCaT keratinocytes", "assay": "scratch wound closure assay (migration of HaCaT keratinocytes)", "assay_type": "cell-based", "protocol": "Specifically, HaCaT keratinocytes were cultured in a 6-well plate and the plate was scratched using a 200 μL micropipette tip. The remainder was washed with PBS and the cells were cultured for 24 hours, treated with 10 μM ginsenoside or DMSO, and the gap regions were measured (FIG. 1B).\nas §1"}, "[20]": {"system": "CTGF protein", "assay": "western blot of CTGF protein in wound skin tissue", "assay_type": "in vivo, mouse", "details": "after 3 days", "protocol": "To examine whether the G75 treatment increases the expression level of CTGF protein, each wound was treated with G75, and after 3 days, the skin tissue was collected and subjected to western blot."}, "[21]": {"system": "CTGF", "assay": "ELISA assay of CTGF production by human dermal fibroblasts", "assay_type": "cell-based", "details": "supernatant of human dermal fibroblasts"}, "[22]": {"system": "human dermal fibroblasts", "assay": "proliferation of human dermal fibroblasts treated with CTGF", "assay_type": "cell-based"}}, "data": [{"molecule": "madecassoside [reference compound]", "values": [{"measurement": "cell proliferation", "setting": "[1]; HaCaT keratinocytes, 10 μM, 48 hours", "value": "slight effect"}, {"measurement": "cell proliferation", "setting": "[2]", "value": "slight effect"}, {"measurement": "wound area compared to vehicle control", "setting": "[3]; 10 μM/wound", "value": "wound areas became smaller"}]}, {"molecule": "CC(C)=CCC[C@](C)(O[C@@H]1O[C@H](CO[C@@H]2O[C@H](CO)[C@@H](O)[C@H](O)[C@H]2O)[C@@H](O)[C@H](O)[C@H]1O)[C@H]1CC[C@]2(C)[C@@H]1[C@H](O)C[C@@H]1[C@@]3(C)CC[C@H](O)C(C)(C)[C@@H]3CC[C@]12C", "note": "[G75, gypenoside LXXV]", "values": [{"measurement": "in vivo absorption rate", "setting": "[4]", "value": "greater in vivo absorption rate"}, {"measurement": "cell proliferation effect relative to the control group", "setting": "[5]; 0.01 μM to 20 μM, DMSO control", "value": "about 136.8%"}, {"measurement": "cell proliferation effect", "setting": "[5]; 0.01 μM to 20 μM, compared to other ginsenosides / control", "value": "highest cell proliferation effect"}, {"measurement": "concentration at which the highest cell proliferation effect was shown", "setting": "[5]", "value": 10, "unit": "µM"}, {"measurement": "effects compared with MA at the same concentration", "setting": "[1]; cell proliferation and cell migration, HaCaT keratinocytes and human dermal fibroblasts", "value": "superior effects to MA"}, {"measurement": "number of genes whose expression level was changed", "setting": "[6]", "value": 1048}, {"measurement": "Fold change Fgf10 mRNA", "setting": "[7]", "value": 1.750}, {"measurement": "Fold change Fgf7 mRNA", "setting": "[8]", "value": 1.789}, {"measurement": "Fold change Csf2 mRNA", "setting": "[9]", "value": 5.545}, {"measurement": "Fold change Hgf mRNA", "setting": "[10]", "value": 1.191}, {"measurement": "Fold change Angpt1 mRNA", "setting": "[11]", "value": 1.796}, {"measurement": "Fold change CTGF mRNA", "setting": "[12]", "value": 1.879}, {"measurement": "Fold change Tgf alpha mRNA", "setting": "[13]", "value": 1.504}, {"measurement": "Fold change Fgf2 mRNA", "setting": "[14]", "value": 8.143}, {"measurement": "Fold change Hbegf mRNA", "setting": "[15]", "value": 1.267}, {"measurement": "Fold change Vegf alpha mRNA", "setting": "[16]", "value": 1.281}, {"measurement": "Fold change Igf1 mRNA", "setting": "[17]", "value": 1.367}, {"measurement": "Fold change Tgf beta1 mRNA", "setting": "[18]", "value": 1.392}, {"measurement": "cell migration", "setting": "[19]; Example 2-1, 5 μM", "value": "significant effect"}, {"measurement": "cell migration", "setting": "[19]; Example 2-1, 10 μM", "value": "significant effect"}, {"measurement": "migration effect (gap regions)", "setting": "[19]; HaCaT keratinocytes, 10 μM, compared to DMSO control", "value": "highest migration effect"}, {"measurement": "expression level of CTGF protein", "setting": "[20]", "value": "significantly increased"}, {"measurement": "amount of CTGF production", "setting": "[21]", "value": "increased the amount of CTGF production"}, {"measurement": "wound area compared to vehicle control", "setting": "[3]; 5 μM/wound", "value": "wound areas became smaller"}]}, {"molecule": "B1", "values": [{"measurement": "proliferation compared to the vehicle control", "setting": "[22]", "value": "higher level of proliferation"}]}]}
